Data from US7741275B2, “Agents and use thereof” (Lipopeptide AB, priority 2004, dated 2010).

Assays:
HaCaT and HEKn cells = format: cell-based
Description: (§1) 25,000 cells/well were plated in 6-well plate culture dishes. […], cells were treated with 0, 0.23, 0.46, 0.69, 0.9, 1.15, 2.3, 4.6 and 11.5 μM LL-37. Each treatment was performed in triplicate. The peptide was diluted in medium (DMEM 5% FCS to HaCaT cells and Epilife basal Medium supplemented with 0.1% FCS to HEKn cells). The cells were treated during a total time of 24 h. After LL-37 stimulation, the topoisomerase I inhibitor camptothecin (CAM) (Sigma Chemical Co., St. Luis, Mo.) in dimethylsulfoxide was added to the cells to a final 6 μM concentration. Cells were further incubated for 24 h before analysis.
Two apoptotic parameters, the loss of the membrane integrity and DNA decrease were evaluated by flow cytometry.
Evaluation of Membrane integrity: After stimulation with LL-37, and treatment with CAM, cells were harvested by trypsinization. The cells were then washed in cold Dulbecco's phosphate-buffered saline (PBS) and counted with a haemocytometer (Hausser Scientific, Horsham, Pa.). Cell density was adjusted to 1×10^6 cells/ml in PBS. Apoptosis was detected by staining with propidium iodide and YO-PRO-1 dye (Molecular Probes, Eugene, Oreg.). Stained cells were analyzed on a FACScan (Beckton-Dickinson, San Jose, Calif.). Cells were gated for analysis on the basis of the forward (FSC) and side light scatter characteristics (SSC). Analysis of cells expressing YO-PRO and propidium iodide (PI) was done using Cell Quest software (Becton Dickinson), which provided percentages of YO-PRO and PI-positive cells. Cells that stained green with YO-PRO were considered apoptotic. Cells that stained also red, with propidium iodide, were necrotic. Live, viable cells take up little or no dye.
Analysis of DNA content by flow cytometry. The PI/RNase staining buffer (BectonDickinson) was used for this analysis. Trypsinized cells were fixed in cold 70% (v/v) ethanol, and stored until its use at 4° C. The DNA content was measured through incorporation of propidium iodide into DNA. Fluorometric analysis was performed using a FACScan flow cytometer (Becton and Dickinson, Mountain View, Calif., USA). FSC (forward light scatter) and SSC (side light scatter) of particles were simultaneously measured to determine the size and the granularity of cells. The red fluorescence of PI stained nuclei was detected in the FL-4 window (600 nm band pass filter and 35 nm bandwidth). The intensity of fluorescence was proportional to the cellular DNA content. Each histogram was divided into two parts: (1) the M1 area representing asynchronous, non-apoptotic, live cells (cells in G1,S and G2 phases with DNA content equal to 2n to 4N); and (2) the M2 area representing apoptotic cells with a smaller quantity of DNA in comparison to living cells.

Caspase-3 = Caspase-3 activity assay; format: cell-based, human
Description: as §1
Caspase-3 enzymatic activity was estimated using the fluorometric substrate VDVAD-AMC (100 μM) and DEVD-AMC (50 μM) as previously described.

IAP-2 mRNA = experiment: IAP-2 expression by RT-PCR; format: cell-based, human
Description: HEKn cells were treated with 2 μM LL-37 and harvested at different time points after stimulation. RNA from these cells was reverse transcribed and the expression of IAP-2 was determined by real-time PCR. The transcription level of IAP-2 for each time point is shown normalized against 18S RNA and relative to the untreated cells (control set as 1 for each time point).
HEKn cells were treated with or without the specific COX-2 inhibitor SC-791 (25 nM) and further incubated for 6 hours with or without LL-37 (2 μM).
(§2) Total RNA was isolated from cells after different treatments according to the manufacturer's directions by using the Quiagen RNasy kit (Operon Biotechnologies, Cologne, Germany). Reverse transcription was performed with a first-strand synthesis kit (Amershan Biosciences)

HaCaT cells [1] = experiment: LL-37 peptide treatment of epithelial cells, [3H]-Thymidine incorporation; format: cell-based, human; details: 5% fetal calf serum, LL-37 10 μg/ml, vs non treated control
Description: A spontaneously immortalised human keratinocyte cell line (HaCaT)^19 was cultured in DMEM (Dulbecco's modified Eagle's medium, Gibco BRL, Life Technologies, Scotland) supplemented with 10% FCS (fetal calf serum, Hy-Clone, Boule Nordic AB Huddinge, Sweden) and antibiotics (PEST=penicillin 50 U/l and streptomycin […], Gibco BRL). Cells were harvested at 70% confluence and seeded in 96-well plates, 2000 cells in 100 μl medium (DMEM+10% FCS and PEST). After 12 hours, medium was changed to serum free medium (DMEM+PEST) and cells were synchronized in G0/G1 by serum starvation for 72 hours and then treated with 100 μl of medium (DMEM+5% FCS+PEST) containing synthetic biologically active LL-37 peptide at 10 μg per ml. Cells treated with only DMEM+5% FCS and PEST served as control. The experiments were performed in quadruplicates. Cell proliferation was evaluated by [^3H]-Thymidine incorporation. Cells were treated with 1 μCi/well of [^3H]-Thymidine (20.00 Ci/mmol, Perkin Elmer Life Sciences Inc. Boston, Mass.) during 12 hours and harvested (Harvester 96, Tomtec, Orage, Conn.) onto a glass fiber filter (Wallac Oy Turku, Finland). The incorporation of [^3H]-Thymidine was determined using a liquid scintillation counter (Microbeta Pluss, Wallac Sveriges AB). The experiment was repeated twice in 6 replicates.

ERK1/2 = experiment: Assay of phosphorylated ERK1/2 in LL-37 treated HaCaT cells; format: cell-based, human; details: LL-37 10 μg/ml, Western blot
Description: HaCaT cells were seeded at 10% confluence and kept in DMEM with 0.2% FCS for 36 hours. For the next 48 hours, cells were cultured in DMEM with 1% or 5% FCS respectively, and in presence or absence of LL-37 at 10 μg/ml, with daily changes of medium. EGF at 10 ng/ml served as positive control. The expression of phosphorylated ERK 1/2 was evaluated by Western blot analysis with a mouse monoclonal antibody (Cell Signaling Technology, Beverly Mass.).

COX-2 mRNA = experiment: COX-2 expression by RT-PCR; format: cell-based, human; details: HEKn cells, 2.3 μM LL-37
Description: HEKn cells were treated with 2 μM LL-37 and harvested at 6, 12 and 24 hours after stimulation. Untreated cells were used as a control in each time point (light grey columns). RNA from these cells was reverse transcribed and the relative expression of COX-2 with respect to the control was determined by qPCR as above.
as §2

[2] = Antibacterial assay of synthetic LL-37; details: synthetic LL-37 peptide
Source text: LL-37 peptide was synthesised and purified by HPLC to a purity of 98% (PolyPeptide Laboratories A/S, Hillerød, Denmark). Biological activity of the peptide was confirmed in an antibacterial assay^18.

hCAP18 transcription [3] = experiment: Initial studies on small-molecule control of hCAP18 transcription; format: cell-based, human
Source text: Since thus small molecules can control the expression of hCAP18, it is meaningful to systematically screen for inhibitory compounds. Initial studies have shown that estrogen and some of its metabolites have no effect. […] Based on these findings, antagonists to vitamin D, such as ZK159222 (Schering A G), and TEI-9647 (Tejin Institute for Medical Research, Tokyo), and antagonists to vitamin A such as AGN193109 (Allergen Pharmaceuticals), are potential agents for use in the methods of the invention.

HaCaT cells [4] = experiment: Pertussis toxin assay (LL-37 induced proliferation); format: cell-based, human; details: pretreatment with pertussis toxin 20 ng/ml 24 h before LL-37 (5 or 10 μg/ml); not shown
Description: To assess the involvement of FPRL1 in mediating the stimulation of epithelial cell proliferation induced by hCAP18/LL-37, HaCaT cells were treated with the G-protein-coupled receptor inhibitor pertussis toxin. Cells were preincubated with pertussis toxin (Sigma-Aldrich, Switzerland) 24 h before the LL-37 treatment in a final toxin concentration of 20 ng/ml. Medium was changed 48 hours after cell seeding and the HaCaT cells were treated with 100 μl of medium (DMEM+5% FCS and PEST) containing synthetic biologically active LL-37 peptide at 5 or 10 μg per ml respectively. Cells treated with only DMEM+5% FCS and PEST served as control.

hCAP18 transcription [5] = details: via vitamin D receptor binding to response element in hCAP18 promoter; cited from earlier work

For `CC[C@@]1(O)C(=O)OCc2c1cc1n(c2=O)Cc2cc3ccccc3nc2-1` [CAM, camptothecin], the “induction of apoptosis (membrane integrity, DNA profile)” value (HaCaT and HEKn cells; 6 μM CAM, 24 hours, HaCaT and keratinocytes) was “morphological changes characteristic of apoptosis”, the “time of peak caspase activity” value (Caspase-3; keratinocytes, CAM treatment) was 24 h and the caspase activity (Caspase-3; keratinocytes, within the first 12 hours of CAM treatment) was “significantly increased”.
For `NS(=O)(=O)c1ccc(-c2c(-c3ccccc3)noc2C(F)F)cc1` [SC-791], the “LL-37 induced increase of IAP-2 mRNA after COX-2 inhibition” value (IAP-2 mRNA; HEKn cells pretreated 12 h with 25 nM SC-791, then 2 μM LL-37) was “did not increase the IAP-2 mRNA levels”.
With “LL-37: synthetic, biologically active C-terminal 37 amino acid peptide of human cathelicidin hCAP18” the “cell proliferation ([3H]-Thymidine incorporation)” value (HaCaT cells [1]) was “significant increase in cell proliferation”, the “activation of ERK1/2” value (ERK1/2) was “no significant activation” and the “amount of apoptotic cells” value (HaCaT and HEKn cells; 24 h with LL-37 alone or simultaneously with LL-37 and CAM, data not shown) was “not change in the amount of apoptotic cells”. The “inhibition of CAM induced apoptosis” value (HaCaT and HEKn cells; LL-37 0.23 μM up to 2,3 μM for 24 hours before CAM 6 μM 24 h, HEKn and HaCaT cells) was “inhibited both DNA fragmentation and loss of membrane permeability”, the cell death (HaCaT and HEKn cells; LL-37 4.6 μM and 11.5 μM, 24 hours before CAM, non-apoptotic mechanisms) was “caused cell death” and the “cytotoxicity (increased fraction of necrotic but not apoptotic cells)” value (HaCaT and HEKn cells; LL-37 4.6 and 11.5 μM, alone or simultaneous with CAM) was “cytotoxic”. For the same molecule, the “effect on camptothecin-induced caspase activation” value (Caspase-3; pre-treatment with 2.3 μM LL-37) was “decreased camptothencin-induced caspase activation”, the “IAP-2 mRNA” value (IAP-2 mRNA; HEKn cells, 2.3 μM LL-37, from 6 hours to 12 hours after stimulation) was “increased IAP-2 mRNA” and the c-IAP-2 levels (IAP-2 mRNA; HEKn cells, LL-37 below 2.3 μM, data not shown) was “did not affect the c-IAP-2 levels”. The “COX-2 mRNA levels” value (COX-2 mRNA) was “time-dependent increase in mRNA levels”, the “time of highest COX-2 mRNA levels” value (COX-2 mRNA) was 12 h and the “biological activity in antibacterial assay” value [2] was “confirmed”.
For Vitamin A, the hCAP18 transcription (hCAP18 transcription [3]; breast cancer cell line ZR-75-1) was “stimulates transcription” and the hCAP18 transcription (hCAP18 transcription [3]; skin keratinocytes) was “inhibits the transcription”.
In the case of estrogen, the “effect on hCAP18 expression” value (hCAP18 transcription [3]; initial studies, cells not given) is reported as “no effect”.
With pertussis toxin the “suppression of proliferation of HaCaT cells” value (HaCaT cells [4]) was “approximately 50%”.
In the case of vitamin D, the “induction of hCAP18 transcription” value (hCAP18 transcription [5]) is given as “strongest inducer of hCAP18 transcription”.
